Some results are limits rather than exact numbers.

This test relates to HEK293T cells carrying the ATF4 luciferase reporter. The test is described as follows: ATF4-Luc assay (in vitro model of VWMD). Format: cell-based. As to conditions: Homo sapiens, HEK-293T; HEK293T ATF4 5'-UTR firefly luciferase reporter cells, 1 μg/mL tunicamycin, 7 hours, One Glo luminescence. As for the experimental part: In order to test exemplary compounds of the invention in a cellular context, a stable VWMD cell line was first constructed. The ATF4 reporter was prepared by fusing the human full-length ATF4 5′-UTR (NCBI Accession No. BC022088.2) in front of the firefly luciferase (FLuc) coding sequence lacking the initiator methionine as described in Sidrauski et al (eLife 2013). The construct was used to produce recombinant retroviruses using standard methods and the resulting viral supernatant was used to transduce HEK293T cells, which were then subsequently selected with puromycin to generate a stable cell line.
HEK293T cells carrying the ATF4 luciferase reporter were plated on polylysine coated 384-well plates (Greiner Bio-one) at 30,000 cells per well. Cells were treated the next day with 1 μg/mL tunicamycin and 200 nM of a compound of Formula (I) or Formula (II) for 7 hours. Luminescence was measured using One Glo (Promega) as specified by the manufacturer. Cells were maintained in DMEM with L-glutamine supplemented with 10% heat-inactivated FBS (Gibco) and Antibiotic-Antimycotic solution (Gibco).
Table 2 below summarizes the EC50 data obtained using the ATF4-Luc assay for exemplary compounds of the invention.
The term EC50 denotes the concentration that produces a half-maximal response. For the compound `O=C(COc1ccc(Cl)c(F)c1)NC12CCC(C(=O)N3Cc4ccc(Cl)cc4C3)(CC1)CC2` [Compound 112, N-[4-(5-chloro-1,3-dihydro-2H-isoindole-2-carbonyl)bicyclo[2.2.2]octan-1-yl]-2-(4-chloro-3-fluorophenoxy)acetamide], the EC50 is over 2000 nM.

For `O=C(COc1ccc(Cl)c(F)c1)NC12CC(C(=O)N3CCC(c4ccc(Cl)cc4)C3)(C1)C2` (stereo not shown) [Compound 103, 2-(4-chloro-3-fluorophenoxy)-N-{3-[3-(4-chlorophenyl)pyrrolidine-1-carbonyl]bicyclo[1.1.1]pentan-1-yl}acetamide], the EC50 was over 2000 nM.

For the compound `O=C(COc1ccc(Cl)c(F)c1)NC12CCC(C(=O)N3CC(O)(c4ccc(Cl)cc4)C3)(CC1)[C@@H](O)C2` [Compound 108, 2-(4-chloro-3-fluorophenoxy)-N-{(3S)-4-[3-(4-chlorophenyl)-3-hydroxyazetidine-1-carbonyl]-3-hydroxybicyclo[2.2.2]octan-1-yl}acetamide], the EC50 lay within 250 to 1000 nM.

On to `O=C(COc1ccc(Cl)c(F)c1)NC12CCC(C(=O)N3CC(c4ccc(Cl)cc4)C3)(CC1)CC2O` (stereo not shown) [Compound 115, 2-(4-chloro-3-fluorophenoxy)-N-{4-[3-(4-chlorophenyl)azetidine-1-carbonyl]-2-hydroxybicyclo[2.2.2]octan-1-yl}acetamide], for which the EC50 was under 50 nM.

`O=C(COc1ccc(Cl)c(F)c1)NC12CCC(C(=O)N3CCC(c4ccc(Cl)cc4)C3)(CC1)CC2` (stereo not shown) [Compound 104, 2-(4-chloro-3-fluorophenoxy)-N-{4-[3-(4-chlorophenyl)pyrrolidine-1-carbonyl]bicyclo[2.2.2]octan-1-yl}acetamide]: the EC50 was over 2000 nM.

In the case of `O=C(COc1ccc(Cl)c(F)c1)NC12CC(C(=O)N3Cc4ccc(Cl)cc4C3)(C1)C2` [Compound 111, N-[3-(5-chloro-1,3-dihydro-2H-isoindole-2-carbonyl)bicyclo[1.1.1]pentan-1-yl]-2-(4-chloro-3-fluorophenoxy)acetamide], the EC50 lay within 250 to 1000 nM.

With `O=C(COc1ccc(Cl)c(F)c1)NC12CCC(C(=O)N3CC(O)(c4ccc(Cl)cc4)C3)(CC1)[C@H](O)C2` [Compound 109, 2-(4-chloro-3-fluorophenoxy)-N-{(3R)-4-[3-(4-chlorophenyl)-3-hydroxyazetidine-1-carbonyl]-3-hydroxybicyclo[2.2.2]octan-1-yl}acetamide], the EC50 lay in the range of 50 to 250 nM.

For `O=C(COc1ccc(Cl)c(F)c1)NC12CCC(C(=O)N3CC(c4ccccc4)C3)(CC1)CC2O` (stereo not shown) [Compound 113, 2-(4-chloro-3-fluorophenoxy)-N-[2-hydroxy-4-(3-phenylazetidine-1-carbonyl)bicyclo[2.2.2]octan-1-yl]acetamide], the EC50 was 250 to 1000 nM.

Regarding `O=C(COc1ccc(Cl)c(F)c1)NC12CCC(C(=O)N3CCC(c4ccc(Cl)cc4)C3)(CC1)CC2O` (stereo not shown) [Compound 114, 2-(4-chloro-3-fluorophenoxy)-N-{4-[3-(4-chlorophenyl)pyrrolidine-1-carbonyl]-2-hydroxybicyclo[2.2.2]octan-1-yl}acetamide], the EC50 is over 2000 nM.

As to `O=C(COc1ccc(Cl)c(F)c1)NC12CC(C(=O)N3CC(c4ccc(Cl)cc4)C3)(C1)C2` [Compound 106, 2-(4-chloro-3-fluorophenoxy)-N-{3-[3-(4-chlorophenyl)azetidine-1-carbonyl]bicyclo[1.1.1]pentan-1-yl}acetamide], the EC50 was under 50 nM.

For the compound `O=C(COc1ccc(Cl)c(F)c1)NC12CCC(C(=O)N3CCN(c4ccc(Cl)cc4)CC3)(CC1)CC2` [Compound 107, 2-(4-chloro-3-fluorophenoxy)-N-{4-[4-(4-chlorophenyl)piperazine-1-carbonyl]bicyclo[2.2.2]octan-1-yl}acetamide], the EC50 lay in the range of 50 to 250 nM.

In the case of `O=C(COc1ccc(Cl)c(F)c1)NC12CC(C(=O)N3CC(O)(c4ccc(Cl)cc4)C3)(C1)C2` [Compound 110, 2-(4-chloro-3-fluorophenoxy)-N-{3-[3-(4-chlorophenyl)-3-hydroxyazetidine-1-carbonyl]bicyclo[1.1.1]pentan-1-yl}acetamide], the concentration giving a half-maximal response (EC50) was over 2000 nM.

As to `O=C(COc1ccc(Cl)c(F)c1)NC12CCC(C(=O)N3CC(c4ccc(Cl)cc4)C3)(CC1)CC2` [Compound 105, 2-(4-chloro-3-fluorophenoxy)-N-{4-[3-(4-chlorophenyl)azetidine-1-carbonyl]bicyclo[2.2.2]octan-1-yl}acetamide], the EC50 was under 50 nM.

For the compound `O=C(COc1ccc(Cl)c(F)c1)NC12CC(C(=O)N3CCC(c4ccc(Cl)cc4)CC3)(C1)C2` [Compound 101, 2-(4-chloro-3-fluorophenoxy)-N-{3-[4-(4-chlorophenyl)piperidine-1-carbonyl]bicyclo[1.1.1]pentan-1-yl}acetamide], the EC50 lay within 50 to 250 nM.

For the compound `O=C(COc1ccc(Cl)c(F)c1)NC12CCC(C(=O)N3CCC(c4ccc(Cl)cc4)CC3)(CC1)CC2` [Compound 102, 2-(4-chloro-3-fluorophenoxy)-N-{4-[4-(4-chlorophenyl)piperidine-1-carbonyl]bicyclo[2.2.2]octan-1-yl}acetamide], the EC50 fell in the range of 50 to 250 nM.

With `O=C(COc1ccc(Cl)c(F)c1)NC12CC(C(=O)N3CC4(C3)CN(c3ccc(Cl)c(F)c3)C4)(C1)C2` [Compound 100, 2-(4-chloro-3-fluorophenoxy)-N-{3-[6-(4-chloro-3-fluorophenyl)-2,6-diazaspiro[3.3]heptane-2-carbonyl]bicyclo[1.1.1]pentan-1-yl}acetamide], the EC50 was over 2000 nM.

For the origin of these results see patent publication US20230192712A1, “MODULATORS OF THE INTEGRATED STRESS PATHWAY” (Calico Life Sciences LLC, priority 2017, published 2023).
